From ChEMBL document CHEMBL1139017, “Synthesis and biological activity of (+)-hedychilactone A and its analogs from (+)-sclareolide” (Bioorg Med Chem Lett, 2006) come the findings set out here.

In brackets after ≈: the same amount, converted by molar mass.

Test [1] relates to HUVEC. The test is described as follows: Antiangiogenic activity against HUVEC cells. Type of test: functional, cell-based. The note with it: Homo sapiens.
In test [2] the test system is U-87 MG. The experiment in a line: Cytotoxicity against U87 cancer cell line. Format: functional, cell-based, U-87MG ATCC. The note with it: Homo sapiens.
The subject of test [3] is HUVEC. The test is described as follows: Inhibition of NO production in HUVEC cells. Type of test: functional, cell-based. The note with it: Homo sapiens.
In test [4] the test system is B16. The experiment in a line: Cytotoxicity against B16 cancer cell line. Type of test: functional, cell-based. The note with it: Mus musculus.
For test [5], the system named is SiHa. The test is described as follows: Cytotoxicity against SiHa cancer cell line. Format: functional, cell-based. The note with it: Homo sapiens.
In test [6] the test system is SK-OV-3. The test is described as follows: Cytotoxicity against sk-ov-3 cancer cell line. Format: functional, cell-based. The note with it: Homo sapiens.
For test [7], the system named is U373 MG. The experiment in a line: Cytotoxicity against U373 cancer cell line. The note with it: Homo sapiens. Format: functional, cell-based, U-373MG ATCC.

With `C=C1[C@@H](O)C[C@H]2C(C)(C)CCC[C@]2(C)[C@H]1C/C=C1\CCOC1=O` [HEDYCHILACTONE A], the IC50 is 12.6 µg/mL (≈ 39.6 µM) in test [1]; 36.8 µg/mL (≈ 116 µM) in test [2]; 11 µg/mL (≈ 34.5 µM) in test [3]; more than 50 µg/mL in test [4]; more than 50 µg/mL in test [5]; 8.7 µg/mL (≈ 27.3 µM) in test [6]. In test [7], the IC50 is more than 50 µg/mL.

On to `C=C1C(=O)C[C@H]2C(C)(C)CCC[C@]2(C)[C@H]1C/C=C1/CCOC1=O`, for which the half-inhibitory concentration (IC50) in test [1] was determined as 0.6 µg/mL (≈ 1.9 µM); in test [2] it was 1.43 µg/mL (≈ 4.52 µM); in test [3], 0.9 µg/mL (≈ 2.84 µM); in test [4], 1.5 µg/mL (≈ 4.74 µM); in test [5], 3.4 µg/mL (≈ 10.7 µM); in test [6], 0.8 µg/mL (≈ 2.53 µM). The molecule further registered a half-maximal inhibitory concentration (IC50) in test [7] of 0.6 µg/mL (≈ 1.9 µM).

On to `C=C1[C@H](O)C[C@H]2C(C)(C)CCC[C@]2(C)[C@H]1C/C=C1/CCOC1=O`, for which the IC50 was 12.4 µg/mL (≈ 38.9 µM) in test [1]; more than 50 µg/mL in test [2]; 8 µg/mL (≈ 25.1 µM) in test [3]; more than 50 µg/mL in test [4]; more than 50 µg/mL in test [5]; 10.1 µg/mL (≈ 31.7 µM) in test [6]. The molecule further yielded a half-inhibitory concentration (IC50) in test [7] of more than 50 µg/mL.

With `CC1=CC[C@H]2C(C)(C)CCC[C@]2(C)[C@H]1CC=O`, the IC50 in test [1] was determined as 4.8 µg/mL (≈ 20.5 µM); in test [2], 11.7 µg/mL (≈ 49.9 µM); in test [3] it was 6 µg/mL (≈ 25.6 µM); in test [4] it was 21.8 µg/mL (≈ 93 µM); in test [5], 20.9 µg/mL (≈ 89.2 µM); in test [6] it was 23.5 µg/mL (≈ 100 µM). This molecule also had a concentration for half-maximal inhibition (IC50) in test [7] of 20.6 µg/mL (≈ 87.9 µM).

With `C=C1[C@H](O)C[C@H]2C(C)(C)CCC[C@]2(C)[C@H]1C/C=C1\CCOC1=O`, the half-maximal inhibitory concentration (IC50) in test [1] turned out to be 6.9 µg/mL (≈ 21.7 µM); in test [2], 12.7 µg/mL (≈ 39.9 µM); in test [3] it was 13.2 µg/mL (≈ 41.4 µM); in test [4], 16.7 µg/mL (≈ 52.4 µM); in test [5], 32 µg/mL (≈ 100 µM); in test [6] it was 12.4 µg/mL (≈ 38.9 µM). In addition, the IC50 in test [7] stood at 14.9 µg/mL (≈ 46.8 µM).

As to `CC1=CC[C@H]2C(C)(C)CCC[C@]2(C)[C@H]1C/C=C1\CCOC1=O`, the IC50 in test [1] worked out at 2.6 µg/mL (≈ 8.6 µM); in test [2] it was 9.2 µg/mL (≈ 30.4 µM); in test [3] it was 18 µg/mL (≈ 59.5 µM); in test [4] it was 9.1 µg/mL (≈ 30.1 µM); in test [5], 17 µg/mL (≈ 56.2 µM); in test [6], 6 µg/mL (≈ 19.8 µM). The molecule also showed a concentration for half-maximal inhibition (IC50) in test [7] of 4.7 µg/mL (≈ 15.5 µM).

Turning to `C=C1C(=O)C[C@H]2C(C)(C)CCC[C@]2(C)[C@H]1C/C=C1\CCOC1=O`, the IC50 turned out to be 1.2 µg/mL (≈ 3.79 µM) in test [1]; 1.7 µg/mL (≈ 5.37 µM) in test [2]; 0.7 µg/mL (≈ 2.21 µM) in test [3]; 3.4 µg/mL (≈ 10.7 µM) in test [4]; 7 µg/mL (≈ 22.1 µM) in test [5]; 0.9 µg/mL (≈ 2.84 µM) in test [6]. This molecule gave a half-inhibitory concentration (IC50) in test [7] of 3.7 µg/mL (≈ 11.7 µM).

Turning to `CC1=CC[C@H]2C(C)(C)CCC[C@]2(C)[C@H]1C/C=C1/CCOC1=O`, the concentration for half-maximal inhibition (IC50) is 4.3 µg/mL (≈ 14.2 µM) in test [1]; more than 50 µg/mL in test [2]; more than 25 µg/mL in test [3]; more than 50 µg/mL in test [4]; more than 50 µg/mL in test [5]; more than 50 µg/mL in test [6]. The same molecule returned a concentration for half-maximal inhibition (IC50) in test [7] of more than 50 µg/mL.

In the case of `C=C1[C@@H](O)C[C@H]2C(C)(C)CCC[C@]2(C)[C@H]1C/C=C1/CCOC1=O`, the half-inhibitory concentration (IC50) in test [1] was 13.8 µg/mL (≈ 43.3 µM); in test [2], more than 50 µg/mL; in test [3] it was 11.2 µg/mL (≈ 35.2 µM); in test [4] it was more than 50 µg/mL; in test [5], 31.7 µg/mL (≈ 99.5 µM); in test [6] it was 5.3 µg/mL (≈ 16.6 µM). The molecule further had an IC50 in test [7] of 15.7 µg/mL (≈ 49.3 µM).

Regarding `C=C1CC[C@H]2C(C)(C)CCC[C@]2(C)[C@H]1CC=O`, the 50% inhibitory concentration (IC50) in test [1] was 2.9 µg/mL (≈ 12.4 µM); in test [2] it was 4.1 µg/mL (≈ 17.5 µM); in test [3] it was more than 25 µg/mL; in test [4] it was 4 µg/mL (≈ 17.1 µM); in test [5] it was 14.5 µg/mL (≈ 61.9 µM); in test [6] it was 3.1 µg/mL (≈ 13.2 µM). The molecule also registered a half-maximal inhibitory concentration (IC50) in test [7] of 7 µg/mL (≈ 29.9 µM).

With `CC(=O)O[C@H]1C(=O)[C@@]2(C)[C@H]([C@H](OC(=O)c3ccccc3)[C@]3(O)C[C@H](OC(=O)[C@H](O)[C@@H](NC(=O)c4ccccc4)c4ccccc4)C(C)=C1C3(C)C)[C@]1(OC(C)=O)CO[C@@H]1C[C@@H]2O` [PACLITAXEL], the IC50 in test [1] was 0.3 µg/mL (≈ 0.351 µM); in test [2], 3.2 µg/mL (≈ 3.75 µM); in test [4], less than 0.1 µg/mL; in test [5], 1.3 µg/mL (≈ 1.52 µM); in test [6], 8.7 µg/mL (≈ 10.2 µM).

`C=C1CC[C@H]2C(C)(C)CCC[C@]2(C)[C@H]1C/C=C1/CCOC1=O`: the IC50 in test [1] was 2.2 µg/mL (≈ 7.27 µM); in test [2], more than 50 µg/mL; in test [3], 4.5 µg/mL (≈ 14.9 µM); in test [4], 17.6 µg/mL (≈ 58.2 µM); in test [5], more than 50 µg/mL; in test [6], 4.3 µg/mL (≈ 14.2 µM). Also, half-maximal inhibition in test [7] (IC50) was put at 40.4 µg/mL (≈ 134 µM).

As for `C=C1CC[C@H]2C(C)(C)CCC[C@]2(C)[C@H]1C/C=C1\CCOC1=O`, the half-inhibitory concentration (IC50) in test [1] worked out at 1.7 µg/mL (≈ 5.62 µM); in test [2] it was 5 µg/mL (≈ 16.5 µM); in test [3] it was 5 µg/mL (≈ 16.5 µM); in test [4], 17.6 µg/mL (≈ 58.2 µM); in test [5] it was 20.2 µg/mL (≈ 66.8 µM); in test [6], 2 µg/mL (≈ 6.61 µM). This molecule showed a 50% inhibitory concentration (IC50) in test [7] of 15.1 µg/mL (≈ 49.9 µM).
